Data from patent US8772305B2, “Substituted pyridinyl-pyrimidines and their use as medicaments” (Boehringer Ingelheim International GmbH, priority 2011, dated 2014).

Molecular target: Recombinant human Syk (amino acids 342-635), GST-Syk kinase fusion protein (Homo sapiens (Human), UniProt P43405)
Assay: In vitro Syk kinase test (Kinase Glo luminescence)
Conditions: read-out: SYK Enzyme IC50, GST-Syk 4 nM, ATP remaining after 60 min at room temperature
Experimental: The catalytic activity of the GST-Syk kinase fusion protein was determined using the Kinase Glo® Luminescence Kinase test (Promega; V6712). In this homogeneous test the amount of ATP remaining after the kinase reaction is quantified by a luciferin-luciferase reaction using luminescence. The luminescence signal obtained correlates with the amount of ATP still present and thus correlates inversely with the activity of the protein kinase.
GST-Syk was diluted to 6.0 nM in the test buffer and 10 μl of this dilution were used in the kinase test (final concentration of Syk=4 nM in a total volume of 15 μl). […]
After 60 minutes, 10 μl Kinase-Glo® solution (Promega, Cat. #V6712) (heated to room temperature) were added to each well and incubation was continued for a further 15 minutes. The plates were read in a Microplate Scintillation and Luminescence Counter (Canberra Packard GmbH). […]
The output file of the “Counter” is a text file that contains the well number and measured counts in two columns. […] Based on this values the % inherent value for the measurement of each substance concentration was calculated using an “MS-Excel—VB macro”. […] The IC50 values were calculated from the % inhibition values using “GraphPadPrism” software (Version 5) (GraphPad Software Inc.).

CNC(=O)c1c[nH]c2ccc(Nc3nccc(-c4ccccn4)n3)cc12 [Example 284]
IC50: 17.7 nM
